What all share (test): ≥ marks a high value that may be exact or a test limit, other limits are often not marked, values filed in µg/mL are converted to µM
Experiment [1] has as its system Staphylococcus aureus NCTC 10442.
Experiment [2] deals with Klebsiella pneumoniae.
Experiment [3] deals with Pseudomonas aeruginosa ATCC 27853.
For experiment [4], the system named is Klebsiella pneumoniae ATCC 700603.
Experiment [5] concerns Staphylococcus aureus.
Experiment [6] concerns Staphylococcus aureus MR.
Experiment [7] relates to Acinetobacter baumannii.
The subject of experiment [8] is Escherichia coli ATCC 25922.
For experiment [9], the system named is Escherichia coli.
The test system of experiment [10] is Acinetobacter baumannii ATCC BAA-747.
Experiment [11] has as its system Listeria fleischmannii DSM 24998.
For experiment [12], the system named is Escherichia coli D31.
Experiment [13] deals with Listeria grayi DSM 20601.
In experiment [14] the test system is Listeria monocytogenes DSM 20600.
In experiment [15] the test system is Micrococcus luteus DSM 20030.
Experiment [16] relates to Streptococcus agalactiae.
For experiment [17], the system named is Micrococcus luteus ATCC 10240.
Experiment [18] relates to Bacillus subtilis ATCC 6633.
Experiment [19] has as its system Enterococcus faecalis.
The test system of experiment [20] is Micrococcus luteus NBRC 12708.
Experiment [21] relates to Shigella boydii.
The test system of experiment [22] is Streptococcus pyogenes.
For experiment [23], the system named is Proteus mirabilis.
Experiment [24] deals with Morganella morganii.
In experiment [25] the test system is Candida albicans ATCC 90112.
The test system of experiment [26] is Escherichia coli NBRC 14237.
Experiment [27] concerns Stenotrophomonas maltophilia ATCC 13637.
Experiment [28] has as its system Saccharomyces cerevisiae NBRC 10217.
Experiment [29] concerns Saccharomyces cerevisiae.
The subject of experiment [30] is Serratia marcescens.
Experiment [31] deals with Staphylococcus aureus ATCC 25923.
Experiment [32] concerns Staphylococcus aureus NBRC 12732.
In experiment [33] the test system is Enterobacter cloacae.
In experiment [34] the test system is Bacillus licheniformis ATCC 21424.
Experiment [35] has as its system Staphylococcus aureus WKZ-2.
Experiment [36] concerns Bacillus atrophaeus BM013.
Experiment [37] deals with Salmonella enterica subsp. enterica serovar Enteritidis 706 RIVM.
The test system of experiment [38] is Pseudomonas aeruginosa PAO1.
Experiment [39] has as its system Staphylococcus aureus ATCC 29213.

Each structure is given as a SMILES string. Values after ≈ are worked out from the molar mass of the structure shown.

On to `CC[C@H](C)[C@H](NC(=O)[C@H](CCSC)NC(=O)[C@H](C)NC(=O)[C@@H]1CCCN1C(=O)[C@@H](NC(=O)[C@@H](NC(=O)[C@H](CCCCN)NC(=O)[C@@H](NC(=O)[C@H](CC(C)C)NC(=O)CNC(=O)CNC(=O)[C@H](CC(C)C)NC(=O)[C@@H](N)Cc1ccccc1)[C@@H](C)CC)[C@@H](C)CC)C(C)C)C(=O)N[C@@H](CS)C(=O)N[C@@H](C)C(=O)N[C@H](C(=O)N[C@H](C(=O)N[C@@H](CCCCN)C(=O)N[C@@H](CCCCN)C(=O)N[C@@H](CS)C(=O)N[C@@H](Cc1cnc[nH]1)C(=O)N[C@@H](Cc1cnc[nH]1)C(=O)N[C@@H](Cc1cnc[nH]1)C(=O)N[C@@H](Cc1cnc[nH]1)C(=O)N[C@@H](Cc1cnc[nH]1)C(=O)N[C@@H](Cc1cnc[nH]1)C(=O)O)[C@@H](C)O)C(C)C` [FLGGLIKIVPAMICAVTKKCHHHHHH], for which the MIC (usually the smallest concentration in the dilution series that meets the test's criterion for growth inhibition) in experiment [1] came out at 5.46 µM (≈ 16 µg/mL); in experiment [2] it was 21.9 µM (≈ 64 µg/mL); in experiment [3] it was 43.7 µM (≈ 128 µg/mL); in [4], 43.7 µM (≈ 128 µg/mL); in experiment [5], 5.46 µM (≈ 16 µg/mL); in [6], 2.73 µM (≈ 8 µg/mL). The MIC in [7] stood at 10.9 µM (≈ 32 µg/mL); in experiment [8], 10.9 µM (≈ 32 µg/mL); in [9], 7.73 µM (≈ 22.6 µg/mL); in experiment [10], 21.9 µM (≈ 64 µg/mL).

As to `CC[C@H](C)[C@H](NC(=O)[C@H](C)NC(=O)[C@H](CO)NC(=O)[C@H](CCCCN)NC(=O)[C@@H]1CCCN1C(=O)[C@@H](NC(=O)[C@H](CCCCN)NC(=O)[C@H](CC(C)C)NC(=O)[C@H](CO)NC(=O)[C@H](CC(C)C)NC(=O)[C@H](CCCCN)NC(=O)[C@H](CC(C)C)NC(=O)[C@H](Cc1ccccc1)NC(=O)[C@@H]1CCCN1C(=O)[C@@H](N)Cc1ccccc1)[C@@H](C)CC)C(=O)N[C@@H](CCCCN)C(=O)N[C@@H](CO)C(=O)N[C@@H](C)C(=O)N[C@H](C(=O)N[C@@H](CCCCN)C(=O)N[C@@H](CCCN=C(N)N)C(=O)N[C@@H](CC(C)C)C(N)=O)[C@@H](C)CC` [FPFLKLSLKIPKSAIKSAIKRL], the MIC came out at 30 µM (≈ 74.9 µg/mL) in [11]; 8 µM (≈ 20 µg/mL) in experiment [12]; 8 µM (≈ 20 µg/mL) in experiment [13]; 30 µM (≈ 74.9 µg/mL) in [14]; 0.25 µM (≈ 0.625 µg/mL) in experiment [15].

Regarding `CC[C@H](C)[C@H](NC(=O)[C@H](CC(C)C)NC(=O)[C@@H]1CCCN1C(=O)[C@H](CC(C)C)NC(=O)[C@H](CCCCN)NC(=O)[C@H](CCCCN)NC(=O)[C@H](CC(C)C)NC(=O)[C@H](CC(C)C)NC(=O)[C@H](C)NC(=O)[C@@H](NC(=O)[C@H](Cc1ccccc1)NC(=O)CN)C(C)C)C(=O)N[C@@H](CC(C)C)C(=O)N[C@@H](CCCCN)C(=O)N[C@@H](Cc1cnc[nH]1)C(=O)N[C@@H](CC(C)C)C(=O)N[C@@H](Cc1cnc[nH]1)C(N)=O` [GFVALLKKLPLILKHLH], the MIC in experiment [16] worked out at 3.75 µM (≈ 7.27 µg/mL); in [17] it was 1.9 µM (≈ 3.69 µg/mL); in [18], 3.75 µM (≈ 7.27 µg/mL); in experiment [19] it was 15 µM (≈ 29.1 µg/mL); in [20], 3.12 µM (≈ 6.05 µg/mL); in experiment [2], 3.75 µM (≈ 7.27 µg/mL). Besides, the minimum inhibitory concentration (MIC) in [21] is 3.75 µM (≈ 7.27 µg/mL); in [3], 7.5 µM (≈ 14.5 µg/mL); in experiment [22] it was 3.75 µM (≈ 7.27 µg/mL); in [23], 30 µM (≈ 58.2 µg/mL); in experiment [24] it was 30 µM (≈ 58.2 µg/mL); in [7] it was 3.75 µM (≈ 7.27 µg/mL). Besides, the MIC in experiment [25] was determined as 7.5 µM (≈ 14.5 µg/mL); in experiment [26], 3.12 µM (≈ 6.05 µg/mL); in [8], 3.75 µM (≈ 7.27 µg/mL); in [27] it was 3.75 µM (≈ 7.27 µg/mL); in [28], 6.25 µM (≈ 12.1 µg/mL); in experiment [29], 3.75 µM (≈ 7.27 µg/mL). Also, the minimal inhibitory concentration (MIC) was determined as 7.5 µM (≈ 14.5 µg/mL) in experiment [30], 15 µM (≈ 29.1 µg/mL) in experiment [31], 1.57 µM (≈ 3.05 µg/mL) in experiment [32] and 7.5 µM (≈ 14.5 µg/mL) in experiment [33].

`CC[C@H](C)[C@H](NC(=O)[C@H](Cc1ccccc1)NC(=O)[C@H](CCCCN)NC(=O)[C@H](CC(C)C)NC(=O)[C@H](CCCCN)NC(=O)CNC(=O)[C@@H]1CCCN1C(=O)[C@H](CCCCN)NC(=O)[C@H](CC(C)C)NC(=O)[C@H](C)NC(=O)[C@@H](NC(=O)[C@H](Cc1cnc[nH]1)NC(=O)[C@@H]1CCCN1)C(C)C)C(=O)N[C@H](C(=O)N1CCC[C@H]1C(=O)N[C@@H](CO)C(=O)N1CCC[C@H]1C(=O)N[C@@H](CCCCN)C(=O)N[C@@H](CCCN=C(N)N)C(=O)N1CCC[C@H]1C(=O)N[C@H](C(=O)N[C@@H](CCCCN)C(=O)N[C@@H](CC(C)C)C(=O)N[C@@H](CC(C)C)C(=O)N[C@@H](CO)C(=O)NCC(=O)O)C(C)C)[C@@H](C)CC` [PHVALKPGKLKFIIPSPKRPVKLLSG]: the MIC was 1.25 µM (≈ 3.53 µg/mL) in experiment [34]; ≥ 40 µM in [35]; 2.5 µM (≈ 7.05 µg/mL) in [36]; > 40 µM in [3]; ≥ 40 µM in [37]; 10 µM (≈ 28.2 µg/mL) in [8]. For the same molecule, the MIC is 20 µM (≈ 56.4 µg/mL) in experiment [38] and > 40 µM in experiment [39].

(Values after DBAASP.)
